Laboratory results published in patent publication US7960391B2, “Heterocyclylethylbenzamide derivatives” (Bayer Cropscience AG, priority 2005, dated 2011).

Experiments:
Botrytis cinerea = experiment: Effectiveness on Botrytis cinerea; type: in vivo; settings: 330 ppm; comparison compounds of WO 01/11965
Alternaria brassicae = experiment: In vivo test on Alternaria brassicae (leaf spot of crucifers); settings: for effectiveness on Alternaria brassicae: 330 ppm, comparison compounds of WO 01/11965
Protocol: In Vivo Test on Alternaria brassicae (Leaf Spot of Crucifers)
The active ingredient tested is prepared by potter homogenisation in a concentrated suspension type formulation at 100 g/l. This suspension is then diluted with water to obtain the desired active material concentration.
Radish plants (Pernot variety) in starter cups, sown on a 50/50 peat soil-pozzolana substrate and grown at 18-20° C., are treated at the cotyledon stage by spraying with the aqueous suspension described above.
Plants, used as controls, are treated with an aqueous solution not containing the active material.
After 24 hours, the plants are contaminated by spraying them with an aqueous suspension of Alternaria brassicae spores (40,000 spores per cm^3). The spores are collected from a 12-13-day-old culture.
The contaminated radish plants are incubated for 6-7 days at about 18° C., under a humid atmosphere.
Grading is carried out 6 to 7 days after the contamination, in comparison with the control plants.

Peronospora parasitica = experiment: Efficacy against Peronospora parasitica; type: in vivo; settings: 330 ppm; comparison compound of WO 01/11965

SMILES	effectiveness on Botrytis cinerea (Botrytis cinerea)	effectiveness on Alternaria brassicae (Alternaria brassicae)	efficacy against Peronospora parasitica (Peronospora parasitica)	good (at least 50%) [protection] versus control plants (Alternaria brassicae; radish plants (Pernot variety), preventive spray 24 hours before contamination, dose 500 ppm, grading 6 to 7 days after contamination)
CCNC(=O)C(Cc1ncc(C(F)(F)F)cc1Cl)NC(=O)c1ccccc1Br (stereo not shown) [compound 310, N-{1-ethylcarbamoyl-2-[3-chloro-5-(trifluoromethyl)-2-pyridinyl]ethyl}-2-bromobenzamide]	zero effectiveness			
CNC(=O)C(Cc1ncc(C(F)(F)F)cc1Cl)NC(=O)c1ccc(-c2ccccc2)cc1 (stereo not shown) [compound 316, N-{1-methylcarbamoyl-2-[3-chloro-5-(trifluoromethyl)-2-pyridinyl]-ethyl}-4-phenylbenzamide]	zero effectiveness	poor effectiveness		
O=C(Cc1cccs1)NCc1ncc(C(F)(F)F)cc1Cl [compound 101, N-{[3-chloro-5-(trifluoromethyl)-2-pyridinyl]methyl}-5-thienylacetamide]	no efficacy	poor efficacy	no efficacy	
CCNC(=O)C(Cc1ncc(C(F)(F)F)cc1Cl)NC(=O)c1cccc([N+](=O)[O-])c1 (stereo not shown) [compound 307, N-{1-ethylcarbamoyl-2-[3-chloro-5-(trifluoromethyl)-2-pyridinyl]ethyl}-3-nitrobenzamide]	zero effectiveness	poor effectiveness		
CNC(=O)C(Cc1ncc(C(F)(F)F)cc1Cl)NC(=O)c1ccc(OC)cc1 (stereo not shown) [compound 315, N-{1-methylcarbamoyl-2-[3-chloro-5-(trifluoromethyl)-2-pyridinyl]ethyl}-4-methoxybenzamide]	zero effectiveness			
CCNC(=O)C(Cc1ncc(C(F)(F)F)cc1Cl)NC(=O)c1ccccc1 (stereo not shown) [compound 304, N-{1-ethylcarbamoyl-2-[3-chloro-5-(trifluoromethyl)-2-pyridinyl]-ethyl}-benzamide]	zero effectiveness			
CNC(=O)C(Cc1ncc(C(F)(F)F)cc1Cl)NC(=O)c1ccccc1 (stereo not shown) [compound 314, N-{1-methylcarbamoyl-2-[3-chloro-5-(trifluoromethyl)-2-pyridinyl]ethyl}-benzamide]	zero effectiveness			
O=C(NCCc1ncc(Br)cn1)c1ccccc1C(F)(F)F [Compound A-1, N-[2-(5-bromopyrimidin-2-yl)ethyl]-2-(trifluoromethyl)benzamide]				at least 50%
CCNC(=O)C(Cc1ncc(C(F)(F)F)cc1Cl)NC(=O)c1ccc(Cl)cc1 (stereo not shown) [compound 306, N-{1-ethylcarbamoyl-2-[3-chloro-5-(trifluoromethyl)-2-pyridinyl]ethyl}-4-chlorobenzamide]	zero effectiveness			
